{
  "source": "patent US20050115197A1",
  "about": "“Antimicrobial barrier coatings and methods of use” (priority 2003, published 2005)",
  "system": "Aspergillus niger (ATCC 6275) and Penicillium pinophilum (ATCC 9644) mixture (interior films); Aureobasidium pullulans (ATCC 9348) (exterior films)",
  "experiment": "dry-film mildew resistance test of sealer/barrier compositions on coated filter paper on malt agar",
  "type": "cell-based",
  "conditions": "level of fungicide in the sealer/barrier composition; up to 14 days incubation",
  "method": "The above sealer/barrier compositions were tested to determine the performance of dry-films as protective sealers in preventing the development of mildew during testing on porous cellulosic substrates. Several test samples of the composition were prepared with levels of fungicide ranging from 250 ppm to 3000 ppm. In addition, a composition was prepared without fungicide for use as a control.\nIndividual samples of the sealer/barrier composition were weighed out. Fungicide was added to the samples of the sealer/barrier coating compositions in a ladder series of levels (e.g., 250, 500, 750 1000 ppm, etc.) and thoroughly mixed. The test porous cellulosic substrates consisting of Whatman No. 30 filter paper were first brush coated each with two (2) coats of test composition, and allowed to dry in a protected location. Duplicate two inch squares were then cut from the coated filter paper specimens and placed on the surface on malt agar petri plates.\nTest inoculums consisting of aqueous spore suspensions at a concentrations of ˜10^5 spores were prepared in sterile water. Those films (compositions) which were intended for use in interior application were inoculated with a mixture of Aspergillus niger (ATCC 6275) and Penicillium pinophilum (ATCC 9644). Films intended for exterior application were inoculated with Aureobasidium pullulans (ATCC 9348). […]",
  "data": [
    {"smiles": "c1ccc2[nH]c(-c3cscn3)nc2c1", "note": "[biocide, 2-(4-thiazoyl)benzimidazole]", "values": [
      {"measurement": "biocide level capable of preventing mold development on the substrate", "result": "≤ 250", "unit": "ppm"}
    ]}
  ]
}
